# Assay results as given in ChEMBL document CHEMBL1201862, “PubChem BioAssay data set” (2004).
# Calls of active or inactive are those of the source.
# Columns and labels:
# Prothrombin = Prothrombin (Homo sapiens, UniProt P00734); assay: Thrombin 1536 HTS Dose Response Confirmation. [Related pubchem assays: 1046 (Thrombin 1536 HTS; hits were confirmed in this assay)]; assay type: functional
# Cytochrome P450 2C9 = Cytochrome P450 2C9 (Homo sapiens, UniProt P11712)
# Cytochrome P450 3A4 = Cytochrome P450 3A4 (Homo sapiens, UniProt P08684);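 note: CYP3A4 tested as one member of a cytochrome P450 panel screen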
# [1] = cytotoxicity toward NIH3T3 fibroblasts, dose response, counter-screen, cell-based, ATP luminescence, mouse fibroblasts (AID 2010); assay type: functional;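 note: cells exposed to compound for about 90 hours before reading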
# [2] = molecular target: T1, Short transient receptor potential channel 4 (Mus musculus, UniProt Q9QUQ5); assay: mouse TRPC4 channel activators, dose response, cell-based, HEK293 TRPC4/mu-opioid, Fluo-4 calcium (AID 434937); assay type: functional
# T1 sequence (Q9QUQ5 whole entry): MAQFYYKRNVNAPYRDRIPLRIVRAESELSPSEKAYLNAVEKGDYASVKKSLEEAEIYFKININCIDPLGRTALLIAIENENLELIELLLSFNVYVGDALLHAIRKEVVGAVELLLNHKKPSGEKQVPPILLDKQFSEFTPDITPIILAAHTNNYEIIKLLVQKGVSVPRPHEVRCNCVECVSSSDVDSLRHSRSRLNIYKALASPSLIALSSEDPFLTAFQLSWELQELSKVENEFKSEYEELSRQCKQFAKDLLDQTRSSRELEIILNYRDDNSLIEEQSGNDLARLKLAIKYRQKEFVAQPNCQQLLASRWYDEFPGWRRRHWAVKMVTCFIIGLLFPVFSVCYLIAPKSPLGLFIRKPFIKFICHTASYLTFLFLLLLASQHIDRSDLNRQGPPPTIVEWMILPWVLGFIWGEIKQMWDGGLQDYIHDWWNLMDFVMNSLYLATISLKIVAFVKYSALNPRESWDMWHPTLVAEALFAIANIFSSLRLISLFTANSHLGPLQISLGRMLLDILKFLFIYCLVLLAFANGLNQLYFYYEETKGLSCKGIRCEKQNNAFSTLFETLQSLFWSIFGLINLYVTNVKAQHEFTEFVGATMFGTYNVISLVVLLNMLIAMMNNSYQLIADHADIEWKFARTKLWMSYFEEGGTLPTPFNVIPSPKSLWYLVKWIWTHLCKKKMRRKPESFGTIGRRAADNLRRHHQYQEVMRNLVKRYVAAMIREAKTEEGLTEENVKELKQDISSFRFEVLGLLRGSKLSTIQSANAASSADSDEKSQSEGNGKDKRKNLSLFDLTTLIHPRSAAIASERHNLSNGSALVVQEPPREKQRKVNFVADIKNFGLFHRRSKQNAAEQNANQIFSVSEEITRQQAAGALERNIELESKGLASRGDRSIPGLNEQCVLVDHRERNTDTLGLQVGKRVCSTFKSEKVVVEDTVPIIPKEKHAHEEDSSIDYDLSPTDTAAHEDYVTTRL
# [3] = inhibitors of intracellular T. cruzi replication, confirmation, NIH3T3 host cells, beta-gal luminescence (AID 2044); assay type: functional, cell-based;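 note: intracellular parasites grown in NIH/3T3 mouse fibroblasts as host cells; luminescent beta-galactosidase reporter signal from transgenic T. cruzi replicating inside host cells; inhibitors lower the luminescence signal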
# Cytochrome P450 2C19 = Cytochrome P450 2C19 (Homo sapiens, UniProt P33261); assay: Cytochrome panel assay with activity outcomes. Panel member name: p450-cyp2c19 Compounds with AC50 equal or less than 10 uM are considered active; assay type: functional; conditions: read-out: AC50
# [4] = cytotoxicity in KRAS-transformed pancreatic duct cells, primary screen, cell-based, fluorescence, HTS (AID 431); assay type: functional; conditions: Homo sapiens;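 note: cell line used: HPDE-C7K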
# [5] = cytotoxicity in HPDE-C7 cells, cell-based, fluorescence, HTS (AID 430); assay type: functional; conditions: Homo sapiens
# Genome polyprotein = Genome polyprotein (dengue virus type 2, UniProt P29990); assay: Dengue-2 NS5 methyltransferase inhibitors, primary screen, biochemical, confirmation dose response (AID 588689); assay type: functional
# [6] = molecular target: T2, Carboxy-terminal domain RNA polymerase II polypeptide A small phosphatase 1 (Homo sapiens, UniProt Q9GZU7); assay: inhibitors of CTDSP1, concentration-response testing, biochemical assay, absorbance-based, actives from ultra-high-throughput screening (AID 540297); assay type: functional
# T2 sequence (Q9GZU7 whole entry): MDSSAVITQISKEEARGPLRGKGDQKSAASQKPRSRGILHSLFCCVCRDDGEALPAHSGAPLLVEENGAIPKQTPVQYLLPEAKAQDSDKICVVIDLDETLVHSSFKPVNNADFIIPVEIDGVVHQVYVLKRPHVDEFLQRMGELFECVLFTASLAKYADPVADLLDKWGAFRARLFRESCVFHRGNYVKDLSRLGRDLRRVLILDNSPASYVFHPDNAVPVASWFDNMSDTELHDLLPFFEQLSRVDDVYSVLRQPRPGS
# [7] = HepG2 cell cytotoxicity, dose response, cytotoxicity control for Shn3 inhibitor project, CellTiter-Glo, cherry-picked (AID 624134); assay type: functional, cell-based
# [8] = Shn3 3'UTR reporter inhibitors, dose response, cell-based, Clone20 osteoblasts, firefly luciferase, cherry-picked (AID 624132); assay type: functional;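 note: firefly luciferase luminescence from reporter carrying the Shn3 3'UTR in osteoblasts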
# [9] = molecular target: T1, Short transient receptor potential channel 4; assay: mouse TRPC4 channel inhibitors, dose response, cell-based, HEK293 TRPC4/mu-opioid, Fluo-4 calcium (AID 434942); assay type: functional;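 note: potency of inhibitors blocking the TRPC4 calcium response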
# [10] = molecular target: T3, Corticotropin-releasing factor receptor 2/Corticotropin-releasing factor-binding protein (Homo sapiens, UniProt P24387+Q13324); assay: activators of CRF receptor 2 with binding protein – uHTS hits, confirmation (AID 602473); assay type: functional; conditions: read-out: EC50_Mean
# T3 sequence (Q13324 whole entry): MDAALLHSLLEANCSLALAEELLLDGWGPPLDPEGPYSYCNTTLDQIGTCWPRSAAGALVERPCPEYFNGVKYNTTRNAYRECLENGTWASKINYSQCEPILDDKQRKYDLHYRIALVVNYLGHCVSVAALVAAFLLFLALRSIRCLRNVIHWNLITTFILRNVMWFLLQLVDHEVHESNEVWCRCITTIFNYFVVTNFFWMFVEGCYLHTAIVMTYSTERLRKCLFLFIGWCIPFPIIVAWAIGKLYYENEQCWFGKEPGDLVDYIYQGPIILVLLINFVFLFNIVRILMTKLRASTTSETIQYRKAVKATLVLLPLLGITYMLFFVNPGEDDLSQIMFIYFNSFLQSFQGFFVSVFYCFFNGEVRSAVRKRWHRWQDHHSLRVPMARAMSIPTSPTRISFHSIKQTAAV
# T3 sequence (P24387 whole entry): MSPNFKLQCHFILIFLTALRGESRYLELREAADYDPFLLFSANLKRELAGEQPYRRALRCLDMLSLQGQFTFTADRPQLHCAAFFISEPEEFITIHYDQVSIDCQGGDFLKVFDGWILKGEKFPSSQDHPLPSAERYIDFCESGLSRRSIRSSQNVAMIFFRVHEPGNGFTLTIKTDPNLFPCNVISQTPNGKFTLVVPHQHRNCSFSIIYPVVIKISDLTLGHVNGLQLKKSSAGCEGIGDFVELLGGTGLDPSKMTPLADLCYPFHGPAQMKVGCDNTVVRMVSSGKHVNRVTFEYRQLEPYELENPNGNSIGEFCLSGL
# [11] = molecular target: T3, Corticotropin-releasing factor receptor 2/Corticotropin-releasing factor-binding protein; assay: Dose Response confirmation of uHTS hits for small molecule antagonists of the CRF-binding protein and CRF-R2 receptor complex.; assay type: functional; conditions: read-out: IC50_Mean
# [12] = P. falciparum Dd2 growth inhibitors, dose response, SYBR Green, dry powder samples (AID 1159566); assay type: functional, cell-based;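 note: potency for growth inhibition with lower SYBR green DNA signal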
# [13] = P. falciparum Dd2 growth inhibitors, dose response, SYBR Green, cherry-picked samples (AID 1159567); assay type: functional, cell-based
# [14] = P. falciparum ATP4 D1247Y mutant growth inhibitors, dose response, NITD609-resistant line, SYBR Green, dry powder (AID 1159571); assay type: functional, cell-based;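 note: parasites synchronized at ring stage by sorbitol before testing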
# [15] = P. falciparum 3D7-ScDHODH growth inhibitors, dose response, SYBR Green, dry powder samples (AID 1159570); assay type: functional, cell-based;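 note: parasite growth measured after 72 hours of compound exposure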
# [16] = cytotoxicity in OVCAR8 ovarian cancer cells, dose response, PAX8 project, cell-based, plate reader, dry powder samples (AID 743197); assay type: functional; conditions: OVCAR-8
# Paired box protein Pax-8 = Paired box protein Pax-8 (Homo sapiens, UniProt Q06710); assay: inhibitors of PAX8-driven TPO luciferase reporter, dose response, RMG-I cells, cherry-pick (AID 687027); assay type: functional, cell-based;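 note: luciferase reporter driven by Pax8 target thyroperoxidase promoter measured by SteadyGlo luminescence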
# [17] = NIH:OVCAR-3 ovarian cancer cell cytotoxicity, dose response, PAX8 inhibitor project, plate reader, dry powder samples (AID 743044); assay type: functional, cell-based
# Cytochrome P450 2C9, sequence (P11712 whole entry): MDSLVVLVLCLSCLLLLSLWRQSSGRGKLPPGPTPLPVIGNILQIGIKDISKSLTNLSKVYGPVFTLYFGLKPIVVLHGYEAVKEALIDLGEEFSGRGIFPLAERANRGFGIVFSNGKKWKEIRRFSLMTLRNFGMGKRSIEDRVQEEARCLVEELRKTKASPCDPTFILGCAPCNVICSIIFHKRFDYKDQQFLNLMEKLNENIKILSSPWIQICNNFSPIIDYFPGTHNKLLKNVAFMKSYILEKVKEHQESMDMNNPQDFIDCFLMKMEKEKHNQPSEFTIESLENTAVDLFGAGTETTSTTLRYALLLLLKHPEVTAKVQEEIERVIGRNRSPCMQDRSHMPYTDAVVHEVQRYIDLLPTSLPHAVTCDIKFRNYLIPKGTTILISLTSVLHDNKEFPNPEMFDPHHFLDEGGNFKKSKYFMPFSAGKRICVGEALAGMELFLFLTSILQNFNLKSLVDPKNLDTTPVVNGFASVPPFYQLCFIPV
# Cytochrome P450 2C19, sequence (P33261 whole entry): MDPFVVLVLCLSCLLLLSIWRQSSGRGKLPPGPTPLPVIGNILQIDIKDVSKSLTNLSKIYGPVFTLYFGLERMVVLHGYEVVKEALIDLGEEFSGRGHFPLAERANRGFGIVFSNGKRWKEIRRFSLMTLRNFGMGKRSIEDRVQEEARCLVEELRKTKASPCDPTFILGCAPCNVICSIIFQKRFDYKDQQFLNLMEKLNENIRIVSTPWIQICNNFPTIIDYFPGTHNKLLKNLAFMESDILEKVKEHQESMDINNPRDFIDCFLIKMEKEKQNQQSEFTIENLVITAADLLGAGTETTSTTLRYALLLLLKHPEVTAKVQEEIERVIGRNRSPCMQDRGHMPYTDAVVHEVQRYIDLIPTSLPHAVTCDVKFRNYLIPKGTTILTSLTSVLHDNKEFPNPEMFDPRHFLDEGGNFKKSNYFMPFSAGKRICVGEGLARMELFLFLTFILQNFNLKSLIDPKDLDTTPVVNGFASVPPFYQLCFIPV
# Paired box protein Pax-8, sequence (Q06710 whole entry): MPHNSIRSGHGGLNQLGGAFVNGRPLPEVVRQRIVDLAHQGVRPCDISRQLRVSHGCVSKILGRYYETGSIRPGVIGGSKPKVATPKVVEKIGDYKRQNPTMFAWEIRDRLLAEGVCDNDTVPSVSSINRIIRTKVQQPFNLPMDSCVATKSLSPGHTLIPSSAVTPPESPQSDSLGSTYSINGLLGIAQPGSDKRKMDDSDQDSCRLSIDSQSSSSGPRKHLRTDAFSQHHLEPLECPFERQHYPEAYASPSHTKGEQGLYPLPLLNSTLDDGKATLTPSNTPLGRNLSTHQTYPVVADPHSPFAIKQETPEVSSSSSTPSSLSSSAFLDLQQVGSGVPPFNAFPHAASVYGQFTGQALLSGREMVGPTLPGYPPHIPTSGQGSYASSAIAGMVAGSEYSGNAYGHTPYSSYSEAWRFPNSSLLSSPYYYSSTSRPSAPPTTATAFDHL
# Genome polyprotein, sequence (P29990 2492-3391 limits assumed): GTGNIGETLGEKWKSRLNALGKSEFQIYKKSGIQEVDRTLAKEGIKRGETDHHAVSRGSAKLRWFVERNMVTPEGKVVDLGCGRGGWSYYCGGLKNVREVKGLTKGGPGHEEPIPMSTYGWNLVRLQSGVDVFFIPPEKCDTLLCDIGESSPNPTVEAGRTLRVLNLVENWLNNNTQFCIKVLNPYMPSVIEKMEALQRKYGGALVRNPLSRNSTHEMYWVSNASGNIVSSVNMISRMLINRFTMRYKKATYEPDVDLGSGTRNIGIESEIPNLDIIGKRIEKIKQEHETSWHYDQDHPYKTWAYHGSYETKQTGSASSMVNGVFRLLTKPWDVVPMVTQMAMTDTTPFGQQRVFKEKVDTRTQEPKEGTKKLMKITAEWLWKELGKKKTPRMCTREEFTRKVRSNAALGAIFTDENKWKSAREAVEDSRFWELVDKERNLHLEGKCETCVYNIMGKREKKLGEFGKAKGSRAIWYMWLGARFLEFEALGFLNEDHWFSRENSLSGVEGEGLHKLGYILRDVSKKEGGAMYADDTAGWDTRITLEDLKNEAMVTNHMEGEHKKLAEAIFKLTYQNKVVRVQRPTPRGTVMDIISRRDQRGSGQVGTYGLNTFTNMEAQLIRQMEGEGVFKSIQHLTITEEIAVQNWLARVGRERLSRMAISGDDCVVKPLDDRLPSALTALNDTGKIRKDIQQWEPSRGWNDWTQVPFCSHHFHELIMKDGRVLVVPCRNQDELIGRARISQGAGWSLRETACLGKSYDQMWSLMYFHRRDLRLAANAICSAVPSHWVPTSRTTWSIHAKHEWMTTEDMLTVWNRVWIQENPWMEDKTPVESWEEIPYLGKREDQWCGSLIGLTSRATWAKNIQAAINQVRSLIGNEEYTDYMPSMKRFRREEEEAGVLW
# Cytochrome P450 3A4, sequence (P08684 whole entry): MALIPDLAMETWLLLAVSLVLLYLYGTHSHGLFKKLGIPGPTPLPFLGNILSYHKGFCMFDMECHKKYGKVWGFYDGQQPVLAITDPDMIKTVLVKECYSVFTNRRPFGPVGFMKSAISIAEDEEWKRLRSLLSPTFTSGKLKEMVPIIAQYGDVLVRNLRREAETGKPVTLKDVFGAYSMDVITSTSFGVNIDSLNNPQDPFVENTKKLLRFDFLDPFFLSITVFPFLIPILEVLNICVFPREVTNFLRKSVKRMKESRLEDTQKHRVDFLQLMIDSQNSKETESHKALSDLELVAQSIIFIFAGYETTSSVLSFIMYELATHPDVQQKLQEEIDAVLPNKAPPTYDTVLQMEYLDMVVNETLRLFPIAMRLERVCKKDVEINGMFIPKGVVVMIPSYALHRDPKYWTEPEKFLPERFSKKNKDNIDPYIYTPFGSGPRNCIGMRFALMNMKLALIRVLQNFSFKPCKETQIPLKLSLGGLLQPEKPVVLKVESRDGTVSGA
compound,measurement,setting,value
N/C(=N\S(=O)(=O)c1ccccc1)c1ccc([N+](=O)[O-])cc1,IC50,Prothrombin,> 50 µM (not active)
COc1ccc(-c2nc3cnc(N4CCNCC4)nc3n(Cc3ccc(F)cc3)c2=O)cc1,AC50,Cytochrome P450 2C9,inconclusive
same,AC50,Cytochrome P450 3A4,15.8 µM (inconclusive)
Cc1cc(OCCCn2ccnc2)cc(C)c1Cl,EC50,[1],> 60 µM (not active)
same,EC50,[2],5.31 µM (active)
same,EC50,[3],0.852 µM (active)
CCCC(=O)n1nc(-c2cccnc2)nc1N,AC50,Cytochrome P450 2C19,31.6 µM (inconclusive)
same,IC50,Prothrombin,0.986 µM (active)
Cc1cc(Br)ccc1OCCn1ccnc1,EC50,[2],3.35 µM (active)
CC(=O)Nc1nonc1-n1nnc(C(=O)NCc2ccccc2)c1C,EC50,[4],> 20 µM (not active)
same,EC50,[5],> 20 µM (not active)
CCOc1cc(/C=N/NC2=NC(=O)C(CC(=O)O)S2)ccc1OCc1ccccc1Cl (configuration not stated),IC50,Genome polyprotein,51.7 µM (active)
same,IC50,[6],4.28 µM (active)
CCCc1c(O)nc(SCCN(CC)CC)nc1O,EC50,[2],1.68 µM (active)
C[C@@H]1CCCCO[C@H](CN(C)Cc2ccccc2)[C@@H](C)CN([C@H](C)CO)C(=O)c2cc(NC(=O)c3ccccc3)ccc2O1,AC50,[7],> 70 µM (inactive)
same,AC50,[8],31.2 µM (active)
O=C(NCc1ccccc1)C1=C[C@H](c2ccc3c(c2)OCO3)C[C@H](OCc2ccc(CO)cc2)O1,EC50,[2],4.73 µM (active)
same,EC50,[9],5.31 µM (active)
Cc1cc(C(=O)N/N=C/C=C/c2ccc(Br)cc2)[nH]n1,IC50,[6],7.02 µM (active)
CN(C)c1oc(-c2ccccc2)nc1C#N,AC50,Cytochrome P450 2C9,inconclusive
CN1CCC2(CC1)Nc1nc(SCc3ccc(Cl)cc3)nn1C1=C2CN(C)CC1,EC50,[10],> 53 µM (inactive)
same,IC50,[11],> 47.1 µM (inactive)
same,EC50,[4],> 20 µM (not active)
same,EC50,[5],> 20 µM (not active)
Cc1ccc2nc(Cl)c(C3CC(c4cccs4)=NN3C(=O)CCCC(=O)O)cc2c1 (configuration not stated),IC50,[6],11.1 µM (active)
Cc1cc2ncn(S(=O)(=O)N3CCOCC3)c2cc1C,IC50,Prothrombin,> 50 µM (not active)
CC(C)N1CCC2(CC1)N=C(c1ccc3c(c1)OCO3)CC(c1cc(Cl)ccc1O)N2 (configuration not stated),EC50,[4],3.54 µM (active)
same,EC50,[5],4.25 µM (active)
COc1ccc(NC(=O)N2CCC3(CC2)CN(C(=O)C2CCC2)[C@H](CO)c2c3c3ccc(OC)cc3n2C)cc1,AC50,[12],0.0967 µM (active)
same,AC50,[13],0.969 µM (active)
same,AC50,[14],0.0845 µM (active)
same,AC50,[15],0.0417 µM (active)
O=C(c1cccs1)n1nc(-c2cccnc2)nc1NCc1ccco1,IC50,Prothrombin,0.711 µM (active)
C[C@H]1CN([C@@H](C)CO)S(=O)(=O)c2ccc(C#Cc3ccncc3)cc2O[C@H]1CN(C)C(=O)C1CCCCC1,AC50,[16],52.3 µM (active)
same,AC50,Paired box protein Pax-8,2.68 µM (active)
same,AC50,[17],12.9 µM (active)
C[C@@H]1CN([C@@H](C)CO)S(=O)(=O)c2ccc(C#CC3CCCC3)cc2O[C@H]1CN(C)C(=O)Cc1ccncc1,AC50,[12],0.722 µM (active)
same,AC50,[13],1.16 µM (active)
same,AC50,[14],1.72 µM (active)
same,AC50,[15],2.98 µM (active)
CC(C)N1C(=O)CC2(CC[N+](C)(CCOC(=O)C(O)(c3ccccc3)c3ccccc3)CC2)C1=O (configuration not stated),IC50,[6],6.22 µM (active)
CCCN(CCC(=O)Nc1cc(OC)cc(OC)c1)CC1CC1,EC50,[2],1.33 µM (active)
CCOC(=O)N(O)c1ccc(C=Cc2ccccc2)cc1,IC50,[6],6.05 µM (active)
O=C(NCCc1cccs1)C1CC(c2c(Cl)cccc2Cl)=NO1 (configuration not stated),AC50,Cytochrome P450 2C9,inconclusive
same,AC50,Cytochrome P450 2C19,0.282 µM (inconclusive)
Cc1ccc(S(=O)(=O)NC(=O)N2CCC(C)CC2)cc1,IC50,Prothrombin,> 50 µM (not active)
NS(=O)(=O)c1cc2c(cc1Cl)N[C@@H](CC1CCCC1)NS2(=O)=O,AC50,Cytochrome P450 2C9,inconclusive
